Source: PubChem BioAssay (NCI)
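Five compound concentrations were applied to cells in 96-well plates for 48 hours; endpoints were derived by simple linear interpolation of the resulting dose-response curve. TGI: concentration producing complete growth inhibition.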

How the values were obtained:
Test in all cases: inhibition of tumour cell growth, NCI panel, 48 h
DU-145 prostate = system: DU-145 prostate
MDA-MB-231 breast = system: MDA-MB-231 breast
MDA-MB-435 = system: MDA-MB-435
MDA-N = system: MDA-N
NCI/ADR-RES ovarian = system: NCI/ADR-RES ovarian
HOP-18 NSCLC = system: HOP-18 NSCLC

Structure (SMILES) | TGI (DU-145 prostate) | TGI (MDA-MB-231 breast) | TGI (MDA-MB-435) | TGI (MDA-N) | TGI (NCI/ADR-RES ovarian) | TGI (HOP-18 NSCLC)
O=Nn1c2ccccc2c2cc([N+](=O)[O-])ccc21 | 28.5 µM | 39.9 µM | 32.8 µM | 37.5 µM | 74 µM | 
CC(C)OP(=O)(OC(C)C)C1=NN(c2ccc([N+](=O)[O-])cc2)C(P(=O)(OC(C)C)OC(C)C)=NN1c1ccc([N+](=O)[O-])cc1 |  |  |  |  |  | > 100 µM
